Laboratory results: paper PMC10828444, “Selective inhibition of overactive warmth-sensitive Ca^2+-permeable TRPV3 channels by antispasmodic agent flopropione for alleviation of skin inflammation” (The Journal of Biological Chemistry, 2023)

How the values were obtained:
hTRPM8 = target: T1, hTRPM8 (Homo sapiens, UniProt Q7Z2W7); experiment: Whole-cell patch-clamp of TRPM8 currents elicited by menthol in HEK293 cells; format: cell-based; settings: flopropione 100 μM, menthol 500 μM
T1 construct: expressed in transfected cells; host or cells: HEK293
T1 sequence (Q7Z2W7 whole entry): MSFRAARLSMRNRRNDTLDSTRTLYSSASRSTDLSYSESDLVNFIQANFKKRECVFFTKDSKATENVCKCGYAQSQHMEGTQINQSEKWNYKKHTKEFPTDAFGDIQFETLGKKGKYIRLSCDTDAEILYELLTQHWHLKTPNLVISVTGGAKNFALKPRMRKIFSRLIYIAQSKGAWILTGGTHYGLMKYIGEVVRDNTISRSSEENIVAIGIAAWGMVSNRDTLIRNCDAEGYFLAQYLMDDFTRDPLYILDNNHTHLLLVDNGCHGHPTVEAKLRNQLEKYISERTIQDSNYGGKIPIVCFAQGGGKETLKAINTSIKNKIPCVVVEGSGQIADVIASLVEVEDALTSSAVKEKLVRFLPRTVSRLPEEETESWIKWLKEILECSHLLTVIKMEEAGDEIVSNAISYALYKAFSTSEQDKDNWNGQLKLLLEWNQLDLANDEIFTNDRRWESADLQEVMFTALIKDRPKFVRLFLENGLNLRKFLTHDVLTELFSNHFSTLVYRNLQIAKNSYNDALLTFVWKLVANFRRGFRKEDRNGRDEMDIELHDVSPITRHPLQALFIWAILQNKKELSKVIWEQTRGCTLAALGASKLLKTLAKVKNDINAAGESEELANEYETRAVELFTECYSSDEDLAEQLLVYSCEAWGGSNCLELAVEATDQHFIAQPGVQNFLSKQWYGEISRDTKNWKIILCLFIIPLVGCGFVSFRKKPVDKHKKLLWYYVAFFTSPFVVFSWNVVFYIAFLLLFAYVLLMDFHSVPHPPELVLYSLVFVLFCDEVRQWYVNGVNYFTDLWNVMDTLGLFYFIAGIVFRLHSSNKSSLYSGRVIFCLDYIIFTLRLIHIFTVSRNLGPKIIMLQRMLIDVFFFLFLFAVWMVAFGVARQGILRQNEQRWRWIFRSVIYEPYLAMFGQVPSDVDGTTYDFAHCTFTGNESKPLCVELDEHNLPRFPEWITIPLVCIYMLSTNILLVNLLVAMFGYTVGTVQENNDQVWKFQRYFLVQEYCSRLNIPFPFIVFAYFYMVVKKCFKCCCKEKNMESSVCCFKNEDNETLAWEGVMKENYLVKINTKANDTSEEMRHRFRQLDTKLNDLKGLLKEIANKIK
Protocol: (§1) HEK293 cells were cultured in Dulbecco’s modified Eagle’s medium (DMEM, Gibco) containing 4.5 g/L D-glucose supplemented with 10% fetal bovine serum based at 37 °C with 5% CO2. For whole-cell patch-clamp recordings, cells were grown in glass coverslips for 24 h before transient transfections with 3000 ng cDNAs of hTRPV3 (gene accession number BC104866.1), hTRPV1 (accession number NM_080704.3), mTRPV2 (accession number NM_011706.2), hTRPV4 (accession number NM_021625.5), hTRPA1 (accession number NM_007332.3) and hTRPM8 (accession number NM_024080.5) into HEK293 cells grown in a 35-mm cell culture dish using Lipofectamine 2000 (Invitrogen). Cells were used 18 ∼ 24 h after transfection. All WT or mutant hTRPV3 plasmids were validated by DNA sequencing.
(§2) Whole-cell patch clamp recordings of wild-type and mutants were carried out at room temperature using the HEKA EPC10 amplifier powered by PatchMaster software (HEKA) or MultiClamp 700B amplifier driven by Clampex 11.0.3 software. The borosilicate glass pipettes were pulled and fire-polished to 3∼6 MΩ using a DMZ universal electrode puller (Zeitz-Instruments, GmbH). Pipette solution and bath solution both contained (in mM): 130 NaCl, three HEPES, and 0.2 EDTA (pH = 7.4). Cell membrane potential was held at 0 mV, currents were recorded at a voltage ramp from −100 to +100 mV for 500-ms and analyzed at ±80 mV.

TRPV3-E501A mutant = target: T2, TRPV3-E501A mutant (Homo sapiens, UniProt Q8NET8, E501A); experiment: Whole-cell and single-channel recordings of TRPV3-E501A mutant; format: cell-based; settings: 100 μM flopropione whole-cell (50 μM 2-APB); 50 μM single-channel (30 μM 2-APB)
T2 construct: expressed in transfected cells; host or cells: HEK293
T2 sequence (Q8NET8 1-790 E501A): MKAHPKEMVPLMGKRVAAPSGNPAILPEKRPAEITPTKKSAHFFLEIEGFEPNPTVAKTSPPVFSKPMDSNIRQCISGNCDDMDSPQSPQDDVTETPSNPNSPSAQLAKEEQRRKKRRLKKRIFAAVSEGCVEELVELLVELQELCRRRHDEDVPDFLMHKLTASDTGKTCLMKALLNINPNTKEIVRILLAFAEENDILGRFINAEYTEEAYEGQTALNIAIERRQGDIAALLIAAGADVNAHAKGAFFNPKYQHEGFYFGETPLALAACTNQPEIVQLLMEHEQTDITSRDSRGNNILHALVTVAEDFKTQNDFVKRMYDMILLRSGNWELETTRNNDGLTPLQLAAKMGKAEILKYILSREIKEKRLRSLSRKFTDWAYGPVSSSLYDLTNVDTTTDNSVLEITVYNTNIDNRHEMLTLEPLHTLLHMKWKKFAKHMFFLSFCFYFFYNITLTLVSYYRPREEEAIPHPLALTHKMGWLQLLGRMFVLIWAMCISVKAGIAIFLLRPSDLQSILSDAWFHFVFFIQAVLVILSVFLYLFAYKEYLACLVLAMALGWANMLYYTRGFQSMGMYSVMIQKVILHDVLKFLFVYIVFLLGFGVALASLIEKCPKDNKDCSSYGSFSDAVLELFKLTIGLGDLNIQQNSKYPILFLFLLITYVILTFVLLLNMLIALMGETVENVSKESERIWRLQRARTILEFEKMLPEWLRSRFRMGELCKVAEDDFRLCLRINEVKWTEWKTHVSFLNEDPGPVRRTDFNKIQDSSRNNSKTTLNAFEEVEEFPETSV
Protocol: as §1
as §2, with “mV. […]” for “mV.”

effect on TRPM8 currents (hTRPM8): no effect | effect of E501A mutation on inhibition by flopropione (TRPV3-E501A mutant): significantly reduced TRPV3 inhibition
Structure (SMILES): CCC(=O)c1c(O)cc(O)cc1O [flopropione]
